Source: US20240261294A1, “METHOD FOR TREATING IDH INHIBITOR-RESISTANT SUBJECTS” (Eli Lilly and Company, priority 2021, published 2024)

Molecular target: T1, IDH2 R140Q_G260A cis (Homo sapiens, UniProt P48735, G260A/R140Q)
T1 construct: expressed in transfected cells; host or cells: U-87 MG
T1 sequence (P48735 40-452 R140Q/G260A): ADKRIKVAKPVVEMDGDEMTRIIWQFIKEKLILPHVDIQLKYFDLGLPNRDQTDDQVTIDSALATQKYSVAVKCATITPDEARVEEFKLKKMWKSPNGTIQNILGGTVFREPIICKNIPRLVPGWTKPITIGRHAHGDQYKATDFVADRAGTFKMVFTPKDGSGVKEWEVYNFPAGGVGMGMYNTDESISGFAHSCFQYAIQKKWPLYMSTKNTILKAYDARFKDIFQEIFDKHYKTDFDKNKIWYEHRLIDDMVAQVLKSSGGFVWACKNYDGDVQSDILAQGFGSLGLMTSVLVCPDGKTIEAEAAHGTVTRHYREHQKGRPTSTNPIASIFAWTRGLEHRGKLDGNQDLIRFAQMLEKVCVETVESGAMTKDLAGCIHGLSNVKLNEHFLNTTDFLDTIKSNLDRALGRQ
Assay: Inhibition of 2-HG production in IDH2 mutant U-87 MG cells
Assay type: cell-based
Conditions: 16 hours incubation, 50K cells/well, 100 μl media/well, read-out: Relative IC50 (nM) Mean, inhibition of 2-HG production

IC50: 7 nM
SMILES: C=CC(=O)N1CCN([C@@H](CC2CC2)c2ccc([C@H](C)Nc3ncc4c(n3)N(CC)C(=O)OC4)cc2)CC1 [Compound A, 7-[[(1S)-1-[4-[(1S)-2-cyclopropyl-1-(4-prop-2-enoylpiperazin-1-yl)ethyl]phenyl]ethyl]amino]-1-ethyl-4H-pyrimido[4,5-d][1,3]oxazin-2-one]
